The values below come from publication PMC9017385, “Pharmacokinetics of Temsavir, the Active Moiety of the HIV-1 Attachment Inhibitor Prodrug, Fostemsavir, Coadministered with Cobicistat, Etravirine, Darunavir/Cobicistat, or Darunavir/Ritonavir with or without Etravirine in Healthy Participants” (Antimicrobial Agents and Chemotherapy, 2022).

Structures are written as SMILES. A value given as a limit tells only on which side of the number the result lay.

The nature of series [1]: Study 206285: safety, adverse events.
Description: Participants were sequentially enrolled to two cohorts. • Cohort 1: Participants received FTR at 600 mg BID on days 1 to 4. […] Participants then received FTR at 600 mg BID plus COBI at 150 mg QD on days 5 to 14 (Fig. 4B).
The nature of series [2]: Study 206281: safety, adverse events. Format: in vivo, human. The settings on record: A fostemsavir 600 mg BID, B DRV/r 600/100 mg BID, C ETR 200 mg BID. The method, then:
(§1) Participants were randomly assigned to one of three cohorts per a computer-generated randomization scheme. • Cohort 1: Participants received FTR at 600 mg twice daily (BID) on days 1 to 4. […] After a 2-day washout (days 5 and 6), participants received ETR at 200 mg BID for 10 days (days 7 to 16) followed by FTR at 600 mg BID with ETR at 200 mg BID for 10 days (days 17 to 26). • Cohort 3: Participants received FTR at 600 mg BID on days 1 to 4.
(§2) Eligible participants were admitted to the clinical facility on day −1 of each study. […] Physical examinations, measurements of vital signs, 12-lead ECGs, and clinical laboratory evaluations were performed, and participants were closely monitored for AEs and SAEs, throughout both studies.

Another series concerns HIV-1. Details: method as in PMID 32212519. The settings on record: through 8 days of FTR functional monotherapy with failing regimen; HTE HIV-1-infected participants, randomized cohort; P < 0.0001; cited from earlier work.
Series [3] in a line: Study 206281: plasma PK of DRV, RTV and ETR with or without FTR. The method, then: as §1, §2
(§3) (i) Bioanalytical methods and PK analysis. […] The lower limit of quantification and the upper limit of quantification for the analysis of TMR in both studies were 5 ng/mL and 5,000 ng/mL, respectively.
(§4) (ii) PK analysis. For both studies, individual participant PK parameter values were derived by noncompartmental methods with a validated PK analysis program using actual times. […] Cmax, Tmax, C12, and C24 were recorded directly from experimental observations and AUCtau was calculated by mixed log-linear trapezoidal summations.
(§5) SAS software version 9.2 (SAS Institute, Inc., Cary, North Carolina) was used for all statistical analyses, tabulations, and graphical presentations. For all treatment comparisons, a linear mixed-effect model was fitted to the log-transformed data with treatment as fixed effect and measurements within each participant as repeated measures, for use in the estimation of effects and the construction of CIs. Point estimates and 90% CIs for differences on the log scale were exponentiated to obtain estimates for GMRs and respective 90% CIs on the original scale. […] FTR administered alone was the reference treatment for both studies.

For series [4], the system named is breast cancer resistance protein (BCRP). The settings on record: not told; cited from earlier work.
Series [5] in a line: Study 206281: plasma PK of temsavir after FTR alone or with DRV/r, ETR, or DRV/r plus ETR. Format: in vivo, human. The method, then:
as §1, §2, §3, §4, §5

Another series relates to P-glycoprotein (P-gp). Set-up: method as in earlier work. The note with it: preclinical studies; cited from earlier work.
Series [6] in a line: QT prolongation at supratherapeutic FTR dose. It is filed as in vivo, human. The settings on record: supratherapeutic FTR 2,400 mg BID.
A short description of series [7]: Study 206285: plasma PK of temsavir after FTR alone or with DRV/c or COBI. It is filed as in vivo, human. The method, then: as §2, §3, §4, §5
[8] abbreviates: FTR plus DRV/r plus ETR vs DRV/r plus ETR, study 206281 cohort 3.
The mark [9] stands for this setting: FTR with DRV/r vs DRV/r, study 206281 cohort 1.
Setting [10] is: FTR with DRV/r + ETR vs DRV/r plus ETR, study 206281 cohort 3.
The mark [11] stands for this setting: DRV/r plus ETR with FTR vs DRV/r plus ETR, study 206281 cohort 3.
Where [12] appears, read: ETR with FTR vs ETR alone, study 206281 cohort 2.
The mark [13] stands for this setting: FTR coadministered with DRV/r and ETR vs FTR alone, study 206281 cohort 3.
Setting [14] is: FTR coadministered with DRV/r vs FTR alone, study 206281 cohort 1.
Where [15] appears, read: FTR coadministered with ETR vs FTR alone, study 206281 cohort 2.
The mark [16] stands for this setting: FTR coadministered with ETR vs FTR alone, study 206281 cohort 2, listed as TMR.
Setting [17] is: FTR coadministered with COBI vs FTR alone, study 206285 cohort 2.
[18] abbreviates: FTR coadministered with DRV and COBI (DRV/c) vs FTR alone, study 206285 cohort 1.

Turning to `COc1cnc(-n2cnc(C)n2)c2c1c(C(=O)C(=O)N1CCN(C(=O)c3ccccc3)CC1)cn2COP(=O)(O)O` [Fostemsavir], in series [1] (study 206285 cohort 1), the Back pain is 1 (6.3) No. of patients (%), the Constipation is 0 No. of patients (%), the Cough is 0 No. of patients (%) and the Headache is 3 (18.8) No. of patients (%). Further, in series [1] (study 206285 cohort 1), the Myalgia is on record as 0 No. of patients (%), the Nausea was 1 (6.3) No. of patients (%), the Neutrophil count decreased is reported as 0 No. of patients (%) and the Oropharyngeal pain was 2 (12.5) No. of patients (%). In addition, in series [1] (study 206285 cohort 1), the Pain is 0 No. of patients (%), the “Participants with AE” value was 6 (37.5) No. of patients (%), the Vomiting is given as 1 (6.3) No. of patients (%) and the WBC decreased is listed as 0 No. of patients (%). In addition, in [1] (study 206285 cohort 2), the Back pain was 1 (6.3) No. of patients (%), the Constipation is on record as 0 No. of patients (%), the Cough is 0 No. of patients (%) and the Headache is reported as 1 (6.3) No. of patients (%). In addition, in series [1] (study 206285 cohort 2), the Myalgia is recorded as 0 No. of patients (%), the Nausea is 0 No. of patients (%), the Neutrophil count decreased is 0 No. of patients (%) and the Oropharyngeal pain was 0 No. of patients (%). Also, in series [1] (study 206285 cohort 2), the Pain was 0 No. of patients (%), the “Participants with AE” value is 3 (18.8) No. of patients (%), the Vomiting was 0 No. of patients (%) and the WBC decreased was 0 No. of patients (%). Also, in [2], the Abdominal distension is 0 No. of patients (%), the Aphthous stomatitis is on record as 0 No. of patients (%), the Back pain is listed as 0 No. of patients (%) and the Diarrhea is on record as 0 No. of patients (%). In series [2], the Dizziness is given as 0 No. of patients (%), the Drug eruption is listed as 0 No. of patients (%), the Dry mouth is 1 (2.2) No. of patients (%) and the Fatigue is 0 No. of patients (%). In addition, in [2], the Headache is recorded as 1 (2.2) No. of patients (%), the Muscle spasms is 0 No. of patients (%), the Nausea is listed as 1 (2.2) No. of patients (%) and the Pruritus is recorded as 1 (2.2) No. of patients (%). Also, in series [2], the Pruritus generalized was 0 No. of patients (%), the Somnolence is 0 No. of patients (%) and the “Subjects with any AE” value was 6 (13.0) No. of patients (%). Besides, in the series with HIV-1, the “adjusted mean decline in HIV-1 RNA” value is 0.8 log10 copies/mL.
As to `CC(C)c1nc(CN(C)C(=O)N[C@H](C(=O)N[C@@H](Cc2ccccc2)C[C@H](O)[C@H](Cc2ccccc2)NC(=O)OCc2cncs2)C(C)C)cs1` [RTV], in series [3] (setting [8]), the “increase in RTV AUCtau” value was 9%, the “increase in RTV C12” value was determined as 7% and the “increase in RTV Cmax” value is listed as 14%. For the same molecule, in [3] (setting [9]), the “change in RTV Cmax” value is “no meaningful change”, the “increase in RTV AUCtau” value turned out to be 15% and the “increase in RTV C12” value was determined as 19%.
`CC(C)CN(C[C@@H](O)[C@H](Cc1ccccc1)NC(=O)O[C@H]1CO[C@H]2OCC[C@H]21)S(=O)(=O)c1ccc(N)cc1` [DRV]: in [3] (setting [10]), the “decrease in DRV AUCtau” value is reported as 6%, the “decrease in DRV C12” value is 12% and the “decrease in DRV Cmax” value was found to be 5%.
As a reminder, the AUC is the area under the concentration-time curve, a measure of exposure. High values mean high exposure, low ones low exposure. One may read the Cmax as the maximum level reached in the sampled fluid or tissue. As to `Cc1cc(C#N)cc(C)c1Oc1nc(Nc2ccc(C#N)cc2)nc(N)c1Br` [ETR, reference compound], in series [2], the Abdominal distension is listed as 0 No. of patients (%), the Aphthous stomatitis is 0 No. of patients (%), the Back pain is 0 No. of patients (%) and the Diarrhea is 0 No. of patients (%). Further, in series [2], the Dizziness is 0 No. of patients (%), the Drug eruption was 2 (14.3) No. of patients (%), the Dry mouth is 0 No. of patients (%) and the Fatigue is listed as 0 No. of patients (%). Besides, in series [2], the Headache was 0 No. of patients (%), the Muscle spasms is listed as 0 No. of patients (%), the Nausea is on record as 0 No. of patients (%) and the Pruritus is 0 No. of patients (%). In series [2], the Pruritus generalized was 1 (7.1) No. of patients (%), the Somnolence is on record as 0 No. of patients (%) and the “Subjects with any AE” value is reported as 4 (28.6) No. of patients (%). For the same molecule, in series [3] (setting [11]), the “increase in ETR AUCtau” value stood at 28%, the “increase in ETR C12” value is given as 28% and the “increase in ETR Cmax” value was determined as 18%. In series [3] (setting [12]), the “increase in ETR AUCtau” value is reported as 11%, the “increase in ETR C12” value is given as 14% and the “increase in ETR Cmax” value amounted to 11%. In [3] (human, plasma, oral, 200 mg), this molecule registered an AUC of 7820 ng·h/mL, a Cmax of 846 ng/mL and a concentration at 12 h of 457 ng/mL.
In the case of `COc1cnc(-n2cnc(C)n2)c2[nH]cc(C(=O)C(=O)N3CCN(C(=O)c4ccccc4)CC3)c12` [Temsavir], the BCRP substrate result in [4] was “substrate”. In [5] (setting [13]), the “increase in TMR AUCtau” value came out at 34%, the “increase in TMR C12 (Ctau in abstract)” value was determined as 33% and the “increase in TMR Cmax” value is listed as 53%. Further, in series [5] (setting [14]), the “increase in TMR AUCtau” value was 63%, the “increase in TMR C12 (Ctau in abstract)” value was found to be 88% and the “increase in TMR Cmax” value stood at 52%. Further, the “decrease in TMR exposures” value in series [5] (FTR coadministered with ETR) is “approximately 50%”. Further, in [5] (setting [15]), the “decrease in TMR AUCtau” value amounted to 50%, the “decrease in TMR C12 (Ctau in abstract)” value is approximately 50% and the “decrease in TMR Cmax” value is reported as approximately 50%. Further, in [5] (setting [16]), the “decrease in TMR C12 (Ctau in abstract)” value is 52% and the “decrease in TMR Cmax” value stood at 48%. The “P-glycoprotein (P-gp) substrate” value with P-glycoprotein (P-gp) is “substrate”. Moreover, the “fold by which exposures with TMR Cmax-driven QT prolongation exceed geometric mean TMR exposures of the current studies” value in [6] is recorded as more than 2 fold. For the same molecule, in [7] (setting [17]), the “increase in TMR AUCtau” value is 93%, the “increase in TMR C12 (Ctau in abstract)” value was 136% and the “increase in TMR Cmax” value was found to be 71%. Moreover, in series [7] (setting [18]), the “increase in TMR AUCtau” value is reported as 97%, the “increase in TMR C12 (Ctau in abstract)” value came to 124% and the “increase in TMR Cmax” value turned out to be 79%.
